Laboratory results: patent publication EP4725956A1, “MODIFIED POLYPEPTIDE AND USE THEREOF IN FIELD OF ANALGESIA” (Nanjing Anji Biotechnology Co., Ltd., priority 2023, dated 2024)
Positions of bridges follow the written chain, without caps; N, C: chain ends. Non-standard residues stand in square brackets, D forms with d. Residues, ends and D or L forms follow the SMILES beside them. Bip = N[C@@H](Cc1ccc(-c2ccccc2)cc1)C(=O)O; Hyp = O=C(O)[C@@H]1C[C@@H](O)CN1; Nle = CCCC[C@H](N)C(=O)O; Orn = NCCC[C@H](N)C(=O)O; Aib = CC(C)(N)C(=O)O

Assays:
[1] = test system: mouse diabetic neuropathic pain model; test: Mouse diabetic neuropathic pain model (Example 10); assay type: in vivo
Procedure: Except for the control group, the remaining male C57 mice (Hangzhou Ziyuan Experimental Animal Technology Co., Ltd.) were continuously fed a high-sugar, high-fat diet for approximately ten weeks. For the model group, mice were fasted overnight, and streptozotocin (STZ) (Sann Chemical Technology (Shanghai) Co., Ltd.) was dissolved in sodium citrate-citric acid buffer solution and intraperitoneally injected at a dose of 70 mg/kg. About two weeks after STZ injection, the mechanical pain threshold of mice was measured. Mice were placed on a perforated wire mesh for adaptation, and the plantar surface of the right hind paw was vertically stimulated with a blunt needle. Pain threshold data were collected using a biosignal acquisition system. Each mouse was measured three times, and the average value was calculated. Mice were then randomly assigned to groups based on their pain thresholds for drug administration.
Day 1 of dosing: Drug administration was performed according to Table 9. Mechanical pain thresholds of the plantar surface were measured at 0 h, 2 h, 4 h, 6 h, and 8 h after administration.

α7 nAChR = α7 nAChR (Homo sapiens, UniProt P36544); test: BLI (biolayer interferometry) affinity of peptides to α7 nAChR; assay type: binding; parameters: inferred from the 'similar' procedure on NTA sensors; settings: NTA sensor, α7 nAChR 20 µg/mL, peptide 1.372-1000 nM in PBS
Method in brief: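 Target protein immobilised on NTA biosensors from PBS at 5 µg/mL (α9) or 20 µg/mL (α7). Peptides run in PBS as threefold series from 1000 nM to 1.372 nM with a PBS blank, 5-minute association and 5-minute dissociation; KD from fitted ka and kd.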

[2] = test system: rat paclitaxel-induced chronic chemotherapy pain model; test: Rat paclitaxel chemotherapy pain model, same dose (Example 5); assay type: in vivo; settings: for ranking among the five candidate modified peptides / analgesic activity (mechanical pain threshold): 1 mg/kg s.c.; for analgesic activity (mechanical pain threshold): day 12, 7 h after dosing; for analgesic efficacy compared with the positive control pregabalin: peptide 1 mg/kg s.c. vs pregabalin 30 mg/kg oral gavage, overall
Procedure: Male SPF (Specific Pathogen Free) SD rats weighing 180-200 g (Shanghai Institute of Planned Parenthood Research, Experimental Animal Department) were used. On the day of model induction, rats were weighed, and baseline mechanical pain thresholds were measured. Animals with large differences in body weight or pain threshold were excluded, and the remaining rats were subjected to the experimental protocol. Paclitaxel powder was dissolved in olive oil to 1 mg/mL. Each rat received an intraperitoneal injection of 2 mg/kg per dose. Four injections were administered on days 1, 3, 5, and 7. Rats in the negative control or vehicle control group received injections of the solvent used to dissolve paclitaxel. […] The blank group in Table 4 represents rats without pain modeling, and the model group represents rats with pain modeling but no drug treatment. On days 1, 3, 5, and 12, drugs were administered at fixed times. On days 1, 3, and 5, mechanical pain thresholds of the right hind paw at the corresponding time were measured at 1 h, 2.5 h, 4 h, and 5.5 h after dosing using a blunt probe. On day 12, mechanical pain thresholds were measured at 4 h and 7 h after dosing. […] AJ003-36 and AJ003-40 were thus identified as candidate molecules for further study. Paclitaxel is a widely used small-molecule chemotherapy drug that, while effective against tumors, can induce neuropathic pain in many cancer patients due to neurotoxicity. The chronic chemotherapy pain model induced in male SD rats via multiple low-dose intraperitoneal injections of paclitaxel simulates clinical chemotherapy-induced neuropathic pain. Using this model, the analgesic effects of five modified peptides, the parent peptide AJ003, and the positive control pregabalin were evaluated. […] Table 4 Dosing Scheme for Screening Analgesic Activity of Selected Modified Peptides at the Same Dose in the Paclitaxel Chemotherapy Pain Model

[3] = test system: rat paclitaxel-induced chronic chemotherapy pain model; test: Rat paclitaxel chemotherapy pain model, different doses (Example 6); assay type: in vivo; settings: for analgesic activity compared with the positive control pregabalin: high dose 1.5 mg/kg s.c. vs pregabalin 30 mg/kg oral gavage; for analgesic effect compared with the model group (mechanical pain threshold): high dose 1.5 mg/kg s.c., 8 h after dosing; for analgesic activity compared with the parent peptide AJ003: low dose 0.5 mg/kg s.c. vs AJ003 1 mg/kg s.c.
Procedure: Male SPF (Specific Pathogen Free) SD rats weighing 180-200 g (Shanghai Institute of Planned Parenthood Research, Experimental Animal Department) were purchased and allowed to acclimate for approximately one week. On the day of model induction, rats were weighed, and baseline mechanical pain thresholds were measured. Animals with large differences in body weight or pain threshold were excluded, and the remaining rats were subjected to the experimental protocol. Paclitaxel powder was dissolved in olive oil to 1 mg/mL. Each rat received an intraperitoneal injection of 2 mg/kg per dose. Four injections were administered on days 1, 3, 5, and 7. Rats in the negative control or vehicle control group received injections of the solvent used to dissolve paclitaxel. […] Starting from day 15 after model induction, drugs were administered daily for consecutive days. On days 1, 4, 7, 12, and 14 of treatment, mechanical pain thresholds of the right hind paw at the corresponding time were measured at 2 h, 4 h, 6 h, and 8 h after dosing using a blunt probe. […]. […] Table 5 Dosing Scheme for Screening Analgesic Activity of Selected Modified Peptides at Different Doses in the Paclitaxel Chemotherapy Pain Model

## CCCC[C@H](NC(=O)[C@@H](NC(=O)[C@H]1CSSC[C@H](NC(=O)[C@H](CO)NC(=O)CN)C(=O)N[C@@H](CO)C(=O)N[C@H]([C@H](C)O)C(=O)N2C[C@H](O)C[C@H]2C(=O)N2C[C@H](O)C[C@H]2C(=O)NC(C)(C)C(=O)N1)C(C)C)C(=O)N[C@@H](Cc1ccc(-c2ccccc2)cc1)C(=O)N[C@@H](CCCN)C(N)=O [AJ003-36, GSCS-(D-Thr)-Hyp-Hyp-Aib-(D-Cys)-V-Nle-Bip-Orn-NH2 (3,9 disulfide bond)] (H-GSCS[dT][Hyp][Hyp][Aib][dC]V[Nle][Bip][Orn]-NH2; disulfide 3-9)
[1]; Day 1 of dosing, 2 h and 4 h, 1 mg/kg s.c. (low dose)
  analgesic activity compared with the model group (mechanical pain threshold): significant analgesic activity
[1]; Day 1 of dosing, 2 h and 4 h, 2 mg/kg s.c. (AJ003; AJ003-36 medium dose)
  analgesic activity compared with the model group (mechanical pain threshold): significant analgesic activity
[1]; Day 1 of dosing, 2 h and 4 h, 3 mg/kg s.c. (high dose)
  analgesic activity compared with the model group (mechanical pain threshold): significant analgesic activity
[1]; Day 1 of dosing, 6 h and 8 h, 1 mg/kg s.c. (low dose)
  analgesic activity compared with the model group (mechanical pain threshold): significant analgesic activity
[1]; Day 1 of dosing, 6 h and 8 h, 2 mg/kg s.c. (AJ003; AJ003-36 medium dose)
  analgesic activity compared with the model group (mechanical pain threshold): significant analgesic activity
[1]; Day 1 of dosing, 6 h and 8 h, 3 mg/kg s.c. (high dose)
  analgesic activity compared with the model group (mechanical pain threshold): significant analgesic activity
[1]; Day 4 of dosing, 2 h and 4 h, 1 mg/kg s.c. (low dose)
  analgesic activity compared with the model group (mechanical pain threshold): significant analgesic activity
[1]; Day 4 of dosing, 2 h and 4 h, 2 mg/kg s.c. (AJ003; AJ003-36 medium dose)
  analgesic activity compared with the model group (mechanical pain threshold): significant analgesic activity
[1]; Day 4 of dosing, 2 h and 4 h, 3 mg/kg s.c. (high dose)
  analgesic activity compared with the model group (mechanical pain threshold): significant analgesic activity
[1]; Day 4 of dosing, 6 h and 8 h, 1 mg/kg s.c. (low dose)
  analgesic activity compared with the model group (mechanical pain threshold): significant analgesic activity
[1]; Day 4 of dosing, 6 h and 8 h, 2 mg/kg s.c. (AJ003; AJ003-36 medium dose)
  analgesic activity compared with the model group (mechanical pain threshold): significant analgesic activity
[1]; Day 4 of dosing, 6 h and 8 h, 3 mg/kg s.c. (high dose)
  analgesic activity compared with the model group (mechanical pain threshold): significant analgesic activity
[1]; Day 8 of dosing, 2 h and 4 h, 1 mg/kg s.c. (low dose)
  analgesic activity compared with the model group (mechanical pain threshold): significant analgesic activity
[1]; Day 8 of dosing, 2 h and 4 h, 2 mg/kg s.c. (AJ003; AJ003-36 medium dose)
  analgesic activity compared with the model group (mechanical pain threshold): significant analgesic activity
[1]; Day 8 of dosing, 2 h and 4 h, 3 mg/kg s.c. (high dose)
  analgesic activity compared with the model group (mechanical pain threshold): significant analgesic activity
[1]; Day 8 of dosing, 6 h and 8 h, 1 mg/kg s.c. (low dose)
  analgesic activity compared with the model group (mechanical pain threshold): no significant difference
[1]; Day 8 of dosing, 6 h and 8 h, 2 mg/kg s.c. (AJ003; AJ003-36 medium dose)
  analgesic activity compared with the model group (mechanical pain threshold): significant analgesic activity
[1]; Day 8 of dosing, 6 h and 8 h, 3 mg/kg s.c. (high dose)
  analgesic activity compared with the model group (mechanical pain threshold): significant analgesic activity
[1]; Day 14 of dosing, 2 h and 4 h, 1 mg/kg s.c. (low dose)
  analgesic activity compared with the model group (mechanical pain threshold): significant analgesic activity
[1]; Day 14 of dosing, 2 h and 4 h, 2 mg/kg s.c. (AJ003; AJ003-36 medium dose)
  analgesic activity compared with the model group (mechanical pain threshold): significant analgesic activity
[1]; Day 14 of dosing, 2 h and 4 h, 3 mg/kg s.c. (high dose)
  analgesic activity compared with the model group (mechanical pain threshold): significant analgesic activity
[1]; Day 14 of dosing, 6 h and 8 h, 1 mg/kg s.c. (low dose)
  analgesic activity compared with the model group (mechanical pain threshold): significant analgesic activity
[1]; Day 14 of dosing, 6 h and 8 h, 2 mg/kg s.c. (AJ003; AJ003-36 medium dose)
  analgesic activity compared with the model group (mechanical pain threshold): significant analgesic activity
[1]; Day 14 of dosing, 6 h and 8 h, 3 mg/kg s.c. (high dose)
  analgesic activity compared with the model group (mechanical pain threshold): significant analgesic activity
[1]; high dose 3 mg/kg s.c. vs pregabalin 60 mg/kg oral, over four administrations
  analgesic activity compared with pregabalin: slightly superior analgesic activity
α7 nAChR
  Kd: 40.8 nM
[2]
  ranking among the five candidate modified peptides: top three analgesic candidates
  analgesic activity (mechanical pain threshold): prolonged analgesic activity lasting up to 7 h
  analgesic efficacy compared with the positive control pregabalin: comparable in analgesic efficacy to pregabalin
[3]
  analgesic activity compared with the positive control pregabalin: slightly superior to the positive control pregabalin
  analgesic effect compared with the model group (mechanical pain threshold): remained significant
  analgesic activity compared with the parent peptide AJ003: comparable to that of AJ003 at 1 mg/kg

## CCCC[C@H](NC(=O)[C@@H](NC(=O)[C@H]1CSSC[C@H](NC(=O)[C@H](CO)NC(=O)CN)C(=O)N[C@@H](CO)C(=O)N[C@H]([C@H](C)O)C(=O)N2C[C@H](O)C[C@H]2C(=O)N2C[C@H](O)C[C@H]2C(=O)N[C@@H](CO)C(=O)N1)C(C)C)C(=O)N[C@@H](Cc1c[nH]c2ccccc12)C(=O)N[C@@H](CCCN)C(N)=O [AJ003-40, GSCS-(D-Thr)-Hyp-Hyp-S-(D-Cys)-V-Nle-W-Orn-NH2 (3,9 disulfide bond)] (H-GSCS[dT][Hyp][Hyp]S[dC]V[Nle]W[Orn]-NH2; disulfide 3-9)
α7 nAChR
  Kd: 46.5 nM
[2]
  ranking among the five candidate modified peptides: top three analgesic candidates
  analgesic activity (mechanical pain threshold): prolonged analgesic activity lasting up to 7 h
  analgesic efficacy compared with the positive control pregabalin: comparable in analgesic efficacy to pregabalin
[3]
  analgesic activity compared with the positive control pregabalin: slightly superior to the positive control pregabalin
  analgesic effect compared with the model group (mechanical pain threshold): remained significant
  analgesic activity compared with the parent peptide AJ003: comparable to that of AJ003 at 1 mg/kg
